Test results reported in paper PMC7363588, “Mapping of the FGF14:Nav1.6 complex interface reveals FLPK as a functionally active peptide modulating excitability” (Physiological Reports, 2020).
Where “and” joins values, the source holds several entries; their conditions need not be identical. Equal values may be shown once. Entries after “also recorded” stand apart in the source; their conditions may differ. Peptide text beside a SMILES is read from it.

Target: T1, Nav1.6 (Homo sapiens, UniProt Q9UQD0)
T1 construct: expressed in transfected cells
Assay: Whole-cell patch-clamp, HEK-Nav1.6 cells expressing GFP
Assay type: cell-based
Details: 50 μM FLPK
Experimental: HEK293 cells were maintained in DMEM and F‐12 (Invitrogen, Carlsbad, CA), supplemented with 0.05% glucose, 0.5 mM pyruvate, 10% fetal bovine serum, 100 units/ml penicillin, and 100 µg/ml streptomycin (Invitrogen), and incubated at 37 °C with 5% CO2. HEK293 cells stably expressing the human Nav1.6 channel (hereafter referred to as HEK‐Nav1.6 cells) were maintained similarly except for the addition of 500 μg/ml G418 (Invitrogen) to maintain stable Nav1.6 expression. Cells were transfected at 80%–90% confluence with equal amount (1 μg each) of plasmid pairs using Lipofectamine 2000 (Invitrogen) according to manufacturer's instructions. HEK‐Nav1.6 cells were washed and replated at very low density prior to electrophysiological recordings (Ali et al., 2016, 2018; Scala et al., 2018; Wadsworth et al., 2019).
HEK‐Nav1.6 cells transfected with GFP or FGF14‐GFP were plated at low density on glass cover slips for 3–4 hr and subsequently transferred to the recording chamber. Recordings were performed at room temperature (20–22°C) 24 hr posttransfection using a MultiClamp 700B amplifier (Molecular Devices, Sunnyvale, CA). The composition of recording solutions consisted of the following salts; extracellular (mM): 140 NaCl, 3 KCl, 1 MgCl2, 1 CaCl2, 10 HEPES, 10 glucose, pH 7.3; intracellular (mM): 130 CH3O3SCs, 1 EGTA, 10 NaCl, 10 HEPES, pH 7.3. Membrane capacitance and series resistance were estimated by the dial settings on the amplifier and compensated for electronically by 70%–75%. Data were acquired at 20 kHz and filtered at 5 kHz prior to digitization and storage. All experimental parameters were controlled by Clampex 9.2 software (Molecular Devices) and interfaced to the electrophysiological equipment using a Digidata 1,200 analog‐digital interface (Molecular Devices). Voltage‐dependent inward currents for HEK‐Nav1.6 cells were evoked by depolarization to test potentials between −100 mV and +60 mV from a holding potential of −70 mV followed by a voltage prestep pulse of −120 mV (Nav1.6). Steady‐state (fast) inactivation of Nav channels was measured with a paired‐pulse protocol. From the holding potential, cells were stepped to varying test potentials between −120 mV (Nav1.6) and +20 mV (prepulse) prior to a test pulse to −20 mV.
Current densities were obtained by dividing Na^+ current (INa) amplitude by membrane capacitance. Current–voltage relationships were generated by plotting current density as a function of the […]. Conductance (GNa) was calculated by the following equation: GNa=INa/Vm‐Erev where INa ^+ is the current amplitude at voltage Vm, and Erev is the Na^+ reversal potential.
Activation curves were derived by plotting normalized GNa as a function of test potential and fitted using the Boltzmann equation: GNa/GNa,Max=1/1+eVa‐Em/k where GNa,Max is the maximum conductance, Va is the membrane potential of half‐maximal activation, Vm is the membrane voltage and k is the slope factor.
The membrane potential of half‐maximal activation, Em is the membrane voltage and k is the slope factor. For steady‐state inactivation, normalized current amplitude (INa/INa,Max) at the test potential was plotted as a function of prepulse potential (Vm) and fitted using the Boltzmann equation: INa/INa,Max=1/1+e‐Vh‐Em/k where Vh is the potential of half‐maximal inactivation, Em is the membrane voltage, and k is the slope factor.
To test whether FLKP had any modulatory effects on Nav1.6‐mediated Na^+ currents, we used whole‐cell patch‐clamp electrophysiology in HEK293 cells stably expressing Nav1.6 (HEK‐Nav1.6) that were transiently transfected with either GFP (HEK‐Nav1.6 GFP) or FGF14‐1b‐GFP (HEK‐Nav1.6 FGF14‐GFP); each group was either treated with FLPK (50 μM from a stock solution dissolved in DMSO) or 0.1% DMSO alone (vehicle) (Figure 5a‐c). […]

T1 sequence (Q9UQD0 whole entry): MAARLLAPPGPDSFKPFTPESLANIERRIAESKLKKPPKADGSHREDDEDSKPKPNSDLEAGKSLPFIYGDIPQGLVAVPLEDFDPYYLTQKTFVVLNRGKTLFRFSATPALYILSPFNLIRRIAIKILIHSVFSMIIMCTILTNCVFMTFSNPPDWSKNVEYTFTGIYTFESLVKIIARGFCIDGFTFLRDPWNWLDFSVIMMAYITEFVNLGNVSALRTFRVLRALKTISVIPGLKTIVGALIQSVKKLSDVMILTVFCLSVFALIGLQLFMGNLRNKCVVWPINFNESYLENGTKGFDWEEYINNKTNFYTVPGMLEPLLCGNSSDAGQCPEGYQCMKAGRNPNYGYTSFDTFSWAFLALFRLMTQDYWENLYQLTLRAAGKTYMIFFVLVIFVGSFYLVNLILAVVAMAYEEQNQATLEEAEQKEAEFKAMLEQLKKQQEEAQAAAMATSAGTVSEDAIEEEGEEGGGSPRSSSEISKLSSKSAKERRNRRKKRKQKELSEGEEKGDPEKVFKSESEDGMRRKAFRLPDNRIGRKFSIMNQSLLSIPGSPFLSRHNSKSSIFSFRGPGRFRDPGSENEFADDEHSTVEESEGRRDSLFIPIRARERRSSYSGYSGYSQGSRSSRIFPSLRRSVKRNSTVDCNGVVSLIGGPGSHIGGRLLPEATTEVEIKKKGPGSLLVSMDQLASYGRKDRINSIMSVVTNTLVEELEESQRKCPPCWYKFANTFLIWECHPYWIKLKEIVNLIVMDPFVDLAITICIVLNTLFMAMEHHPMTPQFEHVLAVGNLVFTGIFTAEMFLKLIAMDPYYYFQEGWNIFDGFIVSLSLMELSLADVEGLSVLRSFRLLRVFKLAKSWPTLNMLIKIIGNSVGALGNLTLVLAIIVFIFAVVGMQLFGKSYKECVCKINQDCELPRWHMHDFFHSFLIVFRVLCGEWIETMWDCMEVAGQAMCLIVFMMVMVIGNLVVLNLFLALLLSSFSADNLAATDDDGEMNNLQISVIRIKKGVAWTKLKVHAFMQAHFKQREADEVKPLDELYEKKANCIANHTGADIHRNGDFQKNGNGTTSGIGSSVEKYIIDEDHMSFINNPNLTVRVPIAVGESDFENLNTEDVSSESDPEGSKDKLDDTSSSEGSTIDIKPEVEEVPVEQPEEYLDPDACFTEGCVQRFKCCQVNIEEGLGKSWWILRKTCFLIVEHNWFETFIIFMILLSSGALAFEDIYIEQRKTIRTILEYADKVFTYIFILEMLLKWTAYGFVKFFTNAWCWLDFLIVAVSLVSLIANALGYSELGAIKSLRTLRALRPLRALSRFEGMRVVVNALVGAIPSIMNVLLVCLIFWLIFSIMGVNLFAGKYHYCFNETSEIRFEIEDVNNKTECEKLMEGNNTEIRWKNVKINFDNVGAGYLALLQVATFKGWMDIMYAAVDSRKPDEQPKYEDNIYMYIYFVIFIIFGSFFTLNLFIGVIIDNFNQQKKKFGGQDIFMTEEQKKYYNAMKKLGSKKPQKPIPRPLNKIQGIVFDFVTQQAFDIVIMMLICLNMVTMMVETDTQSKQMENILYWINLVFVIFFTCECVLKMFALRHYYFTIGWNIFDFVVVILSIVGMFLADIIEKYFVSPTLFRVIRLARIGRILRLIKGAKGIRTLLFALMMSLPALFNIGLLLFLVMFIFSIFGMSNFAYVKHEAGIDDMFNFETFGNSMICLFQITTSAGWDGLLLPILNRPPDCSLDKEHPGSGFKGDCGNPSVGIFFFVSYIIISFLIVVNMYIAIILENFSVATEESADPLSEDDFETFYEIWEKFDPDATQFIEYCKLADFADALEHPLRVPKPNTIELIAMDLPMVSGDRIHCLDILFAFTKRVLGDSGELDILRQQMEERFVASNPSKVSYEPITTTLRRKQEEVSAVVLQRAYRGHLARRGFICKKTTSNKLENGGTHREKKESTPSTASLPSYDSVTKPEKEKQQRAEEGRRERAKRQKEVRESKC

CC(=O)N[C@@H](Cc1ccccc1)C(=O)N[C@@H](CC(C)C)C(=O)N1CCC[C@H]1C(=O)N[C@@H](CCCCN)C(N)=O [FLPK] (Ac-FLPK-NH2)
effect on Nav1.6 currents without FGF14 (HEK-Nav1.6 GFP vs 0.1% DMSO): not statistically different; also recorded: no measurable effects in cells expressing Nav1.6 alone
Tau (τ), decay time constant of I Na (HEK-Nav1.6 GFP, at −10 mV, mean ± SEM (n = 12), DMSO 1.0 ± 0.08, p = .0495): 0.8 ± 0.03 ms and 0.8 ± 0.03 (12)r ms
Peak density (I Na) (HEK-Nav1.6 GFP, at −10 mV, mean ± SEM (n = 14), DMSO −58.6 ± 13.9 (Table 3)): −80.8 ± 12.2 pA/pF and −80.8 ± 12.2 (14) pA/pF
Kinact (HEK-Nav1.6 GFP, mean ± SEM (n = 10), DMSO 5.8 ± 0.4): 6.1 ± 0.5 (10) mV
Steady-state Inactivation (V1/2) (HEK-Nav1.6 GFP, mean ± SEM (n = 10), DMSO −58.9 ± 0.8): −59.3 ± 1.9 (10) mV
Kact (HEK-Nav1.6 GFP, mean ± SEM (n = 12), DMSO 4.3 ± 0.2): 3.9 ± 0.3 (12) mV
Activation (V1/2) (HEK-Nav1.6 GFP, mean ± SEM (n = 12), DMSO −21.8 ± 1.3): −20.5 ± 1.2 (12) mV
